Assay results reported in patent EP1621201A1, “Hesperidin for prophylaxis and treatment of diseases of the central nervous system, in particular Alzheimer's and Parkinson's diseases, for therapy after stroke as well as for chronic pain” (NeuroCode AG, priority 2004, dated 2006).

Test system: Fischer-344 Ratten
Experiment: Tele-Stereo-EEG in freely moving rats (field potentials from frontal cortex, hippocampus, striatum, reticular formation; power density spectra)
Assay type: in vivo, Ratte
Details: rat
Procedure: Die Veränderungen der EEG-Frequenzen nach intraperitonealer Gabe von Salzlösung (Kontrolle) bzw. einer Dosis von Hesperidin (80 und 160 mg/kg Körpergewicht) wurden bestimmt.
Die Untersuchungen wurden analog der durch W. Dimpfel beschriebenen Methode (Dimpfel W Preclinical data base of pharmaco-specific rat EEG fingerprints (Tele-Stereo-EEG). Eur J Med Res (2003) 8: 199-207) folgendermaßen durchgeführt:
Zwölf männlichen erwachsenen Fischer-344 Ratten (Tag-Nacht konvertiert) wurden im Alter von 6 Monaten 4 bipolar konzentrische Elektroden zusammen mit einem Mikrostecker auf einer gemeinsamen Basisplatte implantiert. Der Stecker diente der Aufnahme eines 4-Kanal-Senders zur telemetrischen Übertragung der aus frontalem Kortex, Hippokampus, Striatum und Formation Reticularis abgeleiteten Feldpotentiale. Die Signale wurden auf einem Computer System (Software "EEG-Analyse", Betriebssystem OS Science, Laborrechner "LabTeam" der Firma MediSyst, Linden, DE) in Echtzeit einer Fast-Fourier-Transformation unterworfen und die Leistungsdichtespektren jeweils über 15 bis 60 Minuten gemittelt. Die Unterteilung der Spektren in 6 verschiedene Frequenzbereiche erlaubte die Erfassung pharmako-spezifischer Veränderungen in Bezug auf die jeweils vor Applikation gemessenen Vorwerte innerhalb dieser Frequenzbänder.
Zum Applikationsprotokoll der Substanzen: die Substanzen wurden i.p. 45 Minuten nach Beginn der Messungen (Vorwert) injiziert. Fünf Minuten später wurden die Messungen wieder gestartet, mindestens über die nächsten 5 Stunden kontinuierlich analysiert und in 60-minütigen Perioden zusammengefaßt. Die Testsubstanz wurde in einer Dosierung von 80 und 160 mg/kg appliziert. Die experimentelle Serie wurde mit der Injektion von Salzlösung (Kontrolle), die zu keiner auffälligen Änderung führte, begonnen.
Der statistische Vergleich der Versuche zu den Ergebnissen, die nach Gabe von Salzlösung gemessen wurde, erfolgte mit Hilfe einer multivariaten Analyse nach Ahrens und Läuter (siehe H. Ahrens, J. Läuter "Mehrdimensionale Varianzanalyse" (1974), Akademie Verlag, Berlin) auf der Basis der Veränderungen innerhalb der einzelnen Frequenzbänder in allen Hirnregionen als Variablen.

Compound: COc1ccc([C@@H]2CC(=O)c3c(O)cc(O[C@@H]4O[C@H](CO[C@@H]5O[C@@H](C)[C@H](O)[C@@H](O)[C@H]5O)[C@@H](O)[C@H](O)[C@H]4O)cc3O2)cc1O [Hesperidin, Hesperetin 7-rhamnoglucosid]
- zeitabhängige Veränderungen der EEG-Frequenzen (delta, theta und alpha2 Frequenzen) (80 or 160 mg/kg Hesperidin i.p., Fig. 3a and 3b): nehmen statistisch signifikant und dauerhaft ab
- correlation of the EEG pattern with patterns of drugs for neurodegenerative diseases, pain and stroke (discriminant analysis) (i.p. single dose, compared with Tacrin, Piracetam, Memantine, Metamizol, Amphetamin, no correlation with patterns of drugs for other indications): korrelieren in signifikanter Weise
- delta, theta und alpha2 Frequenzen (i.p., 160 mg/kg, first hour after administration): Abfall
- duration for which the pattern (decrease of delta, theta, alpha2) was observed (i.p., 160 mg/kg, whole test period): 5 Stunden
- Veränderungen der Leistungsdichte in den einzelen Hirnregionen (i.p., 80 and 160 mg/kg, versus pre-drug baseline): dosis-abhängig zu deutlichen Veränderungen
- Muster der EEG-Frequenzänderungen (i.p., after 80 and 160 mg/kg, versus saline): stabiles, statistisch signifikantes Muster
